Where two headings read alike, the source gives them in different places.
Columns and labels:
menopausal women [1] = experiment: Continuous combined estradiol + nomegestrol acetate, 6 months: genital bleeding; type: in vivo
Method: (§1) A trial was carried out to study the effects on the endometrium of the continuous combined association of an oral estradiol dose equivalent to 1.5 mg and various doses of nomegestrol acetate.
(§2) This consisted in the treatment for 6 consecutive months of 179 women who had been menopausal for at least 3 years, with 1.5 mg per day of estradiol combined continuously with 4 different doses of nomegestrol acetate: 5 mg/day (n=47); 2.5 mg/day (n=42); 1.25 mg/day (n=43) and 0.625 mg/day (n=47).
(§3) The impact of these four associations on the endometrium was evaluated by recording the characteristics of genital bleeding, measuring the thickness of the endometrium by endovaginal echography before and at the end of the therapy, and by carrying out a biopsy of the endometrium before and at the end of the therapy.

menopausal women [2] = experiment: Sequential estrogen-progestative therapy: interval before periods after therapy is interrupted; type: in vivo; conditions: Day 13-22, with 30 μg ethinyl estradiol
Method: (§4) Menopausal women, whether naturally or as the result of surgery, were subjected to a sequential estrogen-progestative therapy. From Day 1 to Day 12 they received 30 μg of ethinyl estradiol and then, from Day 13 to Day 22, the same dose of ethinyl estradiol associated with different doses of nomegestrol acetate or chlormadinone acetate. The doses were as follows:
(§5) The number of women was between 2 and 11, depending on the group. There was then a therapeutic pause of 7 days followed by a second treatment cycle.
(§6) The parameters taken into account were as follows: • the interval before periods commenced after the therapy had been interrupted, following the first and second treatment cycles; • the histological appearance of the endometrium recovered in a biopsy carried out between Day 17 and Day 20 of the second cycle.

endometrium [3] = experiment: Continuous combined estradiol + nomegestrol acetate, 6 months: endometrial thickness by endovaginal echography; type: in vivo, women; conditions: 6 months continuous
Method: as §1, §2, §3

[4] = doses higher than those of the application, prolonged treatments; cited from earlier work
endometrium [5] = experiment: Continuous combined estradiol + nomegestrol acetate, 6 months: biopsy of the endometrium; type: in vivo, women
Method: as §1, §2, §3

endometrial cells = experiment: Sequential estrogen-progestative therapy: histological appearance of endometrium biopsy; type: in vivo, women; conditions: for Number of mitoses (% of section in which mitoses were present), Glands: with 30 μg ethinyl estradiol, biopsy Day 17-20 of second cycle
Method: as §4, §5, §6

endometrium [6] = conditions: cited from earlier work
[7] = Dose producing an adequate delay in the onset of periods (literature); type: in vivo; conditions: NEUMANN; reference progestative norgestrel (=1)
Excerpt: (§7) 2) Apart from the above, it would be reasonable to think that the doses claimed should be based on data from clinical pharmacology and/or clinical data previously published and commonly accepted. Now, if the doses defined as in the PLUNKETT patents are considered, it is easy to see that in most cases the active doses published already a long time ago, i.e. before the said patents were filed (NEUMANN, 1977) or more recently (KUHL, 1996), are very coherent but only rarely lie within the dose ranges claimed in the patents in the name of PLUNKETT (Table 2).

ovulation [8] = experiment: Dose inhibiting ovulation (literature); type: in vivo; conditions: NEUMANN; reference progestative norgestrel (=1)
Excerpt: as §7

[9] = Dose having a contraceptive effect (literature); type: in vivo; conditions: NEUMANN; reference progestative norgestrel (=1)
Excerpt: as §7

endometrium [10] = conditions: NEUMANN publication; cited from earlier work
endometrium [11] = experiment: Dose inducing transformation of the endometrium (literature); type: in vivo; conditions: NEUMANN; reference progestative norgestrel (=1)
Excerpt: as §7

[12] = NEUMANN publication; cited from earlier work
ovulation [13] = conditions: NEUMANN publication; cited from earlier work
[14] = NEUMANN publication; cited from earlier work; remark: listed apart in the source
[15] = NOMAC 0.625 mg/day + estradiol (2 mg estradiol valerate)
[16] = NOMAC 1.25 mg/day + estradiol (2 mg estradiol valerate)
[17] = NOMAC 2.5 mg/day + estradiol (2 mg estradiol valerate)
[18] = NOMAC 5 mg/day + estradiol (2 mg estradiol valerate)
[19] = NOMAC 0.625 mg/day (n = 32) + estradiol (2 mg estradiol valerate)
[20] = NOMAC 1.25 mg/day (n = 33) + estradiol (2 mg estradiol valerate)
[21] = NOMAC 2.5 mg/day (n = 34) + estradiol (2 mg estradiol valerate)
[22] = NOMAC 5 mg/day (n = 40) + estradiol (2 mg estradiol valerate)

SMILES: CC(=O)O[C@]1(C(C)=O)CC[C@H]2[C@@H]3C=C(C)C4=CC(=O)CC[C@@H]4[C@H]3CC[C@@]21C [Nomegestrol acetate, nomegestrol acetate]
- Percentage of women who showed no genital bleeding at all throughout the therapy (menopausal women [1]; 0.625 mg/day + 1.5 mg/day estradiol): 42.5%
- Percentage of women who showed no genital bleeding at all throughout the therapy (menopausal women [1]; 1.25 mg/day + 1.5 mg/day estradiol): 58.1%
- Percentage of women who showed no genital bleeding at all throughout the therapy (menopausal women [1]; 2.5 mg/day + 1.5 mg/day estradiol): 52.4%
- Percentage of women who showed no genital bleeding at all throughout the therapy (menopausal women [1]; 5 mg/day + 1.5 mg/day estradiol): 68.1%
- Interval before the appearance of periods after the therapy is discontinued (menopausal women [2]; 0.1 mg/day): -0.5 ± 1.5 days
- Interval before the appearance of periods after the therapy is discontinued (menopausal women [2]; 0.25 mg/day): -0.5 ± 0.5 days
- Interval before the appearance of periods after the therapy is discontinued (menopausal women [2]; 0.5 mg/day): 1.5 ± 0.5 days
- Interval before the appearance of periods after the therapy is discontinued (menopausal women [2]; 1.0 mg/day): 2.7 ± 0.2 days
- Interval before the appearance of periods after the therapy is discontinued (menopausal women [2]; 2.5 mg/day): 3.2 ± 0.2 days
- Interval before the appearance of periods after the therapy is discontinued (menopausal women [2]; 5 mg/day): 4.3 ± 0.4 days
- Interval before the appearance of periods after the therapy is discontinued (menopausal women [2]; 10 mg/day): 3.8 ± 0.8 days
- Mean thickness at the end of the treatment (endometrium [3]; [15]): 3.18 mm
- Mean thickness increase under the treatment (endometrium [3]; [15]): 0.39 mm
- Mean thickness at the end of the treatment (endometrium [3]; [16]): 4.05 mm
- Mean thickness increase under the treatment (endometrium [3]; [16]): 1.12 mm
- Mean thickness at the end of the treatment (endometrium [3]; [17]): 3.93 mm
- Mean thickness increase under the treatment (endometrium [3]; [17]): 1.36 mm
- Mean thickness at the end of the treatment (endometrium [3]; [18]): 3.83 mm
- Mean thickness increase under the treatment (endometrium [3]; NOMAC 5 mg/day + estradiol (2 mg estradiol valerate), listed as NOMAC): 1.57 mm
- Mean thickness increase under the treatment (endometrium [3]; NOMAC 5 mg/day + estradiol (2 mg estradiol valerate), listed as nomegestrol acetate): 1.56 mm
- Tolerance: effect on lipids profile, tolerance to glucides, arterial pressure, coagulation factors [4]: no effect on the lipids profile, the tolerance to glucides, the arterial pressure and the coagulation factors
- Absence of endometrium, number of women (endometrium [5]; [19]): 5
- Atrophic endometrium, number of women (endometrium [5]; [19]): 19
- Polyps, number of women (endometrium [5]; [19]): 0
- Secretory endometrium, number of women (endometrium [5]; [19]): 8
- Absence of endometrium, percentage (endometrium [5]; [15]): (15.6) percentage
- Atrophic endometrium, percentage (endometrium [5]; [15]): (59.4) percentage
- Secretory endometrium, percentage (endometrium [5]; [15]): (25.0) percentage
- Absence of endometrium, number of women (endometrium [5]; [20]): 10
- Atrophic endometrium, number of women (endometrium [5]; [20]): 10
- Polyps, number of women (endometrium [5]; [20]): 1
- Secretory endometrium, number of women (endometrium [5]; [20]): 12
- Absence of endometrium, percentage (endometrium [5]; [16]): (30.3) percentage
- Atrophic endometrium, percentage (endometrium [5]; [16]): (30.3) percentage
- Polyps, percentage (endometrium [5]; [16]): (3.0) percentage
- Secretory endometrium, percentage (endometrium [5]; [16]): (36.4) percentage
- Absence of endometrium, number of women (endometrium [5]; [21]): 3
- Atrophic endometrium, number of women (endometrium [5]; [21]): 8
- Polyps, number of women (endometrium [5]; [21]): 1
- Secretory endometrium, number of women (endometrium [5]; [21]): 22
- Absence of endometrium, percentage (endometrium [5]; [17]): (8.8) percentage
- Atrophic endometrium, percentage (endometrium [5]; [17]): (23.5) percentage
- Polyps, percentage (endometrium [5]; [17]): (2.9) percentage
- Secretory endometrium, percentage (endometrium [5]; [17]): (64.7) percentage
- Absence of endometrium, number of women (endometrium [5]; [22]): 3
- Atrophic endometrium, number of women (endometrium [5]; [22]): 3
- Polyps, number of women (endometrium [5]; [22]): 0
- Secretory endometrium, number of women (endometrium [5]; [22]): 34
- Absence of endometrium, percentage (endometrium [5]; [18]): (7.5) percentage
- Atrophic endometrium, percentage (endometrium [5]; [18]): (7.5) percentage
- Secretory endometrium, percentage (endometrium [5]; [18]): (85.0) percentage
- Number of mitoses (% of section in which mitoses were present), Glands (endometrial cells; 0.1 mg/day): 50%
- Number of mitoses (% of section in which mitoses were present), Glands (endometrial cells; 0.25 mg/day): 50%
- Number of mitoses (% of section in which mitoses were present), Glands (endometrial cells; 0.5 mg/day): 0%
- Number of mitoses (% of section in which mitoses were present), Glands (endometrial cells; 1 mg/day): 0%
- Number of mitoses (% of section in which mitoses were present), Glands (endometrial cells; 2 mg/day): 0%
- Number of mitoses (% of section in which mitoses were present), Glands (endometrial cells; 2.5 mg/day): 0%
- Number of mitoses (% of section in which mitoses were present), Glands (endometrial cells; 5 mg/day): 0%
- Number of mitoses (% of section in which mitoses were present), Glands (endometrial cells; 10 mg/day): 30%
- Dose at which mitosis no longer takes place in glandular cells (endometrial cells; sequential therapy with 30 μg ethinyl estradiol): ≥ 0.5 mg/day
- Endometrial hyperplasia (endometrium [6]; 5 mg/day for 12 days per cycle, with various estrogens, 150 women over 1 year (THOMAS et al. 1993)): makes it possible to prevent endometrial hyperplasia
- Endometrial hyperplasia (endometrium [6]; 5 mg/day for 14 days per cycle, women treated with percutaneous estradiol (BERNARD et al. 1994)): absence of hyperplasia was confirmed

SMILES: C#CC1(O)CC[C@H]2[C@@H]3CCC4=CC(=O)CC[C@@H]4[C@H]3CC[C@@]21CC (stereo partly shown) [Norgestrel]
- Dose ratio, Menstruation (2) [7]: 1.0
- Dose ratio, Ovulation (3) (ovulation [8]): 1.0
- Dose ratio, Contraception (4) [9]: 1.0
- Dose necessary to induce transformation of the endometrium (1) (endometrium [10]): 1200 µg/day
- Dose ratio, Endometrium (1) (endometrium [11]): 1.0
- Dose necessary to have a contraceptive effect (4) [12]: 250 µg/day
- Dose necessary to inhibit ovulation (3) (ovulation [13]): 100 µg/day
- Dose necessary to produce an adequate delay in the onset of periods (2), Menstruation [14]: 2000 µg/day

— patent US8168619B1, “Hormonal composition based on a progestational agent and an oestrogen and use thereof” (Laboratoire Theramex, priority 1999, dated 2012)
